This assay has as its target T1, LSD1 (lysine-specific histone demethylase 1A, KDM1A) (Homo sapiens, UniProt O60341).
T1 construct: recombinant human LSD1 (BPS#50103)
The assay is described as follows: AlphaScreen demethylase assay with biotinylated histone H3 peptide substrate and purified recombinant LSD1. The assay is classed as biochemical. For orientation: Bead proximity is the source of the signal in Alpha formats.

For the compound `C/C=C(/C=O)[C@@H](CC=O)CC(=O)OCCc1ccc(O)c(O)c1` [oleacein], the IC50 (as a rule, the midpoint of a concentration-inhibition curve) was roughly 2500 nM.

The record behind these values is PMC6683035, “Extra Virgin Olive Oil Contains a Phenolic Inhibitor of the Histone Demethylase LSD1/KDM1A” (Nutrients, 2019).
